Data from patent US6681132B1, “Sodium magnetic reasonance imaging used in diagnosing tumors and assessing response to treatment” (The Trustees of Columbia University in the City of New York, priority 1999, dated 2004).
“Also recorded” adds a separate entry of the source.

How the values were obtained:
LNCaP = test: APO-BRDU endlabelling of DNA fragmentation, flow cytometry, LNCaP; format: cell-based, human
Description: At the end of the treatment period, cells are trypsinized, resuspended in media, resuspended in PBS, resuspended in iced cold methanol free formaldehyde (1% in PBS) for 15 min, resuspended in 70% ethanol and stored at −20° C. until all samples from a given experiment are ready to run (19, 23). Using a very powerful endlabelling technique (APO-BRDU, Phoenix Flow Systems, California) which gives a dynamic range of fluorescence intensities of up to 1000 fold comparing control cells to cells with advanced DNA fragmentation. Results have been confirmed using positive and negative controls provided by Phoenix Flow Systems, camptothecin treated PC3 cells, and a SNAP treated myocyte line.
Fixed cells are labeled following kit instructions (two washes with kit buffer, overnight endlabelling, two resuspensions in a rinse buffer, exposure to fluorescent antibody and treatment with propidium iodide and RNAase. Flow cytometry is performed on a Becton/Dickenson FACStar II. Individual fluorescence intensity values for 10,000 cells are obtained for each sample.
To specifically assay DNA fragmentation, a downstream response to apoptosis, uses of a terminal deoxynucleotidyl transferase labeling approach whereby fluorescent moieties are enzymatically attached to all DNA fragment ends. (FIG. 3a) The technique which was used, has a dynamic range of approximately ×1000 (FIG. 2). This allows for making very quantitative comparisons of DNA fragmentation on a cell to cell basis using flow cytometry, and to further examine the relative drug sensitivity profiles of the 3 cell lines.

L cells = conditions: cited from earlier work
[1] = tested on: carcinogen (MNU) induced breast tumor; test: Weighted and non-weighted sodium MRI of carcinogen (MNU) induced breast tumor; format: in vivo, Sprague Dawley rat; conditions: rat
Description: In another example, a breast cancer tumor is imaged in an animal model. This image verifies that the imaging diagnostic described herein responds to the treatment of a different animal model when using a different tissue type as the neoplastic target. The tumor was induced by injecting a Sprague Dawley rat with carcinogen MNU. When the tumor was palpable and measured in excess of 5 mm in diameter, the rat was imaged using weighting and non-weighting pulse sequences. One rat was given a 3 mg intra venous injection of taxotere and a second was given a 6 mg injection of taxotere. […] Both the images became brighter, with the most dramatic proportional change occurring in the weighted image.

LNCaP tumor = test: Na SQ and TQ line profiles of LNCaP tumor in vivo; conditions: 18 hours after i.v. injection of 1 mg in the femoral vein
Description: After preliminary studies, experiments were performed where proton, Na SQ and Na TQ images and line profiles were acquired at baseline and following bolus i.v. injection of chemotherapy. Imaging results for a LNCaP tumor in vivo, both at baseline and 18 hours after i.v. injection of 1 mg of taxotere in the femoral vein were examined.

[2] = human single loading doses; cited from earlier work
mouse = conditions: in vivo; cited from earlier work

Structure (SMILES): COc1cc([C@@H]2c3cc4c(cc3[C@@H](O[C@@H]3O[C@@H]5CO[C@@H](C)O[C@H]5[C@H](O)[C@H]3O)[C@H]3COC(=O)[C@H]23)OCO4)cc(OC)c1O [VP-16, etoposide]
- DNA fragmentation response (LNCaP; 24 hrs): almost no response
- DNA fragmentation response (LNCaP; 44 hrs): significant DNA fragmentation
- effect on total cellular monovalent cations (L cells; K+ loss exceeds Na+ gain): net reduction
- effect on [Cai] (L cells; L cells): elevate
- effect on [Nai] (L cells; L cells): elevate
- effect on pHi (L cells; L cells): lowers

Structure (SMILES): CC(=O)O[C@@]12CO[C@@H]1C[C@H](O)[C@@]1(C)C(=O)[C@H](O)C3=C(C)[C@@H](OC(=O)[C@H](O)[C@@H](NC(=O)OC(C)(C)C)c4ccccc4)C[C@@](O)([C@@H](OC(=O)c4ccccc4)[C@H]21)C3(C)C [taxotere]
- response of sodium MR images to treatment ([1]; 3 mg intra venous injection): Only the latter showed a response
- response of sodium MR images to treatment ([1]; 6 mg intravenous injection): showed a response; also recorded: become brighter after the treatment
- change of SQ line profile (LNCaP tumor): did not significantly vary
- change of TQ line profiles (LNCaP tumor): substantial increase
- DNA fragmentation response (LNCaP; 24 hrs): almost no response
- DNA fragmentation response (LNCaP; 44 hrs): significant DNA fragmentation
- peak plasma level [2]: about 5 μMol/L
- plasma level for the first 9.6 hrs [2]: > 50 nM
- plasma level for the first 25 hrs [2]: > 10 nM
- reported toxic mouse dose (mouse): 4.5 mg
